Measurements as given in patent US9920020B2, “Using squaraine dyes as near infrared fluorescent sensors for protein detection” (The University of Akron, priority 2011, dated 2018).

Tests used:
[1] = system: zebrafish embryos/larvae; assay: Toxicity to zebrafish embryos/larvae; type: in vivo
Source text: (§1) The most attractive application for protein sensing is labeling and imaging in living organisms. Zebrafish have recently become an important model organism for the study of vertebrate imaging. This is because the embryos of zebrafish are transparent, allowing for clear observation of their organs without the need for dissection. The optical transparancy of zebrafish, therefore, provides a convenient organism for detection of ions by fluorescence microscopy. No published reports are found on the use of zebrafish for BSA fluorescence microscopy. Herein, DNSA-SQ was examined in developing zebrafish for its applicability. DNSA-SQ labeling was examined in developing zebrafish by adding DNSA-SQ to fish tank water (treatment lasted for one hour at room temperature). There was no labeling in control (i.e. without BSA supplement) embryos at 2.5 hours post fertilization (hpf, FIG. 20B), 36 hpf and 73 hpf (data not shown). […] At 73 hpf, the labeling was detected in the yolk and yolk extension (FIG. 20D), eye (FIG. 20E) and pigmented cells in the body trunk and tail regions (FIGS. 20G and H). […] The DNSA-SQ labeling pattern show good biocompatibility, excellent turn-on fluorescence.
Therefore DNSA-SQ was proving not toxic to the subjects. […]

[2] = biological target: T1, BSA (Bos taurus, UniProt P02769); assay: ESI travelling wave ion mobility mass spectrometry (TWIMS) of BSA-guest complexes; set-up: species or system bovine; conditions: 15+ charge state
T1 construct: purchased Acros Chemical
T1 sequence (P02769 25-607): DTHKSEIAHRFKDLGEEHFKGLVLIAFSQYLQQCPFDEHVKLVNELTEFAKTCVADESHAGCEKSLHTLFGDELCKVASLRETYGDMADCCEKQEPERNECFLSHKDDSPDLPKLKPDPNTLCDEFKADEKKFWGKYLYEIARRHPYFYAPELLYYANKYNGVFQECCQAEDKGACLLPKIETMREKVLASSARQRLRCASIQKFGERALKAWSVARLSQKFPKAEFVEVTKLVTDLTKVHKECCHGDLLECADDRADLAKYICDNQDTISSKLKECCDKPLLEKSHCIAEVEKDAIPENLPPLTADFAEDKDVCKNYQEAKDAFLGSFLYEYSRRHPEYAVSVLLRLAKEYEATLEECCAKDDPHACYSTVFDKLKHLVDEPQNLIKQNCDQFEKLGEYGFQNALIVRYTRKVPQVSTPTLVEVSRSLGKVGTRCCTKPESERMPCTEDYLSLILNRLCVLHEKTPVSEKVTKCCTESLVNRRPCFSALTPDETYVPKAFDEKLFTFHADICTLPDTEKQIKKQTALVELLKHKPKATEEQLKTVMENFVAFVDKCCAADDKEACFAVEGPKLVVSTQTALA
Source text: Ion mobility mass spectrometry, when coupled with ESI, can produce an array of multiply charged gas-phase ions from protein molecules in solution which is related to the solution-phase folded and unfolded conformation of the protein. The structural measurement, namely, collision cross-section, can be calculated from the drift time of each ion. Herein we use travelling wave ion mobility mass spectrometry (TWIMS) to detect the change of the protein conformation after different site selective binding guests were added in BSA buffer solution. TWIMS was performed under the same conditions to ensure minimal error for compassion. […] As shown in FIG. 19(c), the ions of DP were generated through the tandem MS of intact complex ions at 15+. Taking 15+ charge state for example, the mobility peak drift time tD=6.41, 6.80, 6.67 and 6.54 ms for BSA, BSA+DP, BSA+DNSA-SQ and BSA+DNSA, respectively. The corresponding experimental collision cross-sections (CCS) are 4298, 4364, 4342 and 4320 Å2 using standard curve. […] This finding is consistent with the fluorescence change discussed above, particularly for the fluorescence enhancement by adding DP to BSA/DNSA-SQ.

[3] = system: chymotrypsin; assay: Fluorescence response to chymotrypsin in PBS; type: binding
Experimental: (§2) The fluorescence enhancement upon binding BSA reached over 140-fold, which was quite large in comparison with those being reported. The detection limit was 1 μg/mL of BSA (signal-to-noise ratio was 3). The fluorescence response of DNSA-SQ to other proteins in PBS was also investigated. […] The observed specific binding to site I can be attributed to hydrophobic pockets of BSA in its structure.

[4] = biological target: T2, lysozyme (Gallus gallus, UniProt P00698); assay: Fluorescence response to lysozyme in PBS; type: binding
T2 construct: purchased SIGMA
T2 sequence (P00698 19-147): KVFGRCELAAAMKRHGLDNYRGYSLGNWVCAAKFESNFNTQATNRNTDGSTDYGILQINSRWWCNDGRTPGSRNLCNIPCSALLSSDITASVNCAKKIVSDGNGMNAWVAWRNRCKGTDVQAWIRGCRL
Experimental: as §2

[5] = biological target: T3, BSA site I and site II (Bos taurus, UniProt P02769); assay: Site-selective ligand displacement from BSA/DNSA-SQ complex; type: binding, bovine
T3 construct: purchased Acros Chemical
T3 sequence (P02769 25-607): as the sequence (P02769 25-607) above
Source text: The site-selective binding of BSA/DNSA-SQ was probed by employing a site selective binding ligand, which would result in decrease in fluorescence intensity when the squaraine dyes were displaced from a specific BSA binding site. […] The observed fluorescence increasing thus implies that the BSA conformation change as DP entered the site II, which stimulated interaction of BSA/DNSA-SQ at site I. It was noted that a squaraine dye can selectively bind BSA at site I (˜40%) and site II (˜60%) on the assumption of no dependency between Site I and II of BSA. Circular dichroism (CD) was also used to probe the proposed binding mechanism. Similar CD spectra usually represent a similar binding mode between the sensor and protein. […] Under the same conditions, the effect of DNSA-SQ on the CD spectrum of BSA was similar to that of DNSA. The result further supports that DNSA-SQ was binding to site I of BSA.
The response of a fluorescence probe at a specific site (such as site I), therefore, could also shed some light on the binding of the other site (e.g. site II). Study of this synergetic interaction between two binding sites could lead to improved understanding on the protein-dye interaction.

[6] = Fluorescence quantum yield of the dye in aqueous solution; type: physicochemical; conditions: no protein
Experimental: NMR spectra were collected on a Varian 300 Gemini spectrometer. Mass spectrometric data were obtained on a HP1100LC/MSD mass spectrometry. HRMS data were performed on a TOF MS system. UV-Vis spectra were acquired on a Hewlett-Packard 8453 diode-array spectrometer. Fluorescence spectra were obtained on a HORIBA Jobin Yvon NanoLog spectrometer. The quantum yield of fluorescence of the sample was measured using bis(3-ethylbenzothiazol-2-ylidene)squaraine in ethanol (Φ=0.21) as a standard and calculated using equation (1): […]
Where Φunk is i the fluorescence quantum yield of the sample, Φstd is the fluorescence quantum yield of the standard, Iunk and Istd are the integrated emission intensities of the sample and the standard, respectively, Aunk and Astd are the absorbance of the sample and the standard at the excitation wavelength, respectively, and nunk and nstd are the refractive indexes of the corresponding solution.
In the presence of the anionic surfactant (sodium dodecyl sulfate, SDS) (1.7 mM or 0.05% wt), the fluorescence signals are further decreased by a factor of about 3. […] The emission signals at ˜684 nm is assigned to the monomeric 1b, as the fluorescence of squaraine dye typically has a small Stokes' shift (about 10-30 nm). […] Similar fluorescence enhancement is also observed from 1a and 1c after the addition of BSA. […]

[7] = system: trypsin; assay: Fluorescence response to trypsin in PBS; type: binding
Experimental: as §2

[8] = biological target: T4, fibrinogen (Homo sapiens, UniProt P02671+P02675+P02679); assay: Fluorescence response to fibrinogen in PBS; type: binding
T4 sequence (P02671 20-629 limits assumed): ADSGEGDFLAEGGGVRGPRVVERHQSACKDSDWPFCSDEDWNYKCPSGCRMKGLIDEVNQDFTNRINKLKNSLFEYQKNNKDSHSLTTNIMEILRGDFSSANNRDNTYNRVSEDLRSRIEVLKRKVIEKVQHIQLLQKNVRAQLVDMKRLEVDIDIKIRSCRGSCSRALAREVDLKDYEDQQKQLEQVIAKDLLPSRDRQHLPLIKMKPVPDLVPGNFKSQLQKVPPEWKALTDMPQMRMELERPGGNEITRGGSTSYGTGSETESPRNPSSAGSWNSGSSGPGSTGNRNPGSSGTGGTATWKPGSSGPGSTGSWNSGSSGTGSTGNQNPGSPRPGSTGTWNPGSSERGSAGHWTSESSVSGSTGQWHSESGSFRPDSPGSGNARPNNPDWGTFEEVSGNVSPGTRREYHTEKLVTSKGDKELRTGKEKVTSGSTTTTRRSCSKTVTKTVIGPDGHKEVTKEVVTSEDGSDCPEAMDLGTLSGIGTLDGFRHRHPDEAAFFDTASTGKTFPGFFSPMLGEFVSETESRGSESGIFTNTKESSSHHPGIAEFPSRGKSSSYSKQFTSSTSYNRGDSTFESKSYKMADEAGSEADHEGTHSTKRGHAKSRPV
T4 sequence (P02675 31-491): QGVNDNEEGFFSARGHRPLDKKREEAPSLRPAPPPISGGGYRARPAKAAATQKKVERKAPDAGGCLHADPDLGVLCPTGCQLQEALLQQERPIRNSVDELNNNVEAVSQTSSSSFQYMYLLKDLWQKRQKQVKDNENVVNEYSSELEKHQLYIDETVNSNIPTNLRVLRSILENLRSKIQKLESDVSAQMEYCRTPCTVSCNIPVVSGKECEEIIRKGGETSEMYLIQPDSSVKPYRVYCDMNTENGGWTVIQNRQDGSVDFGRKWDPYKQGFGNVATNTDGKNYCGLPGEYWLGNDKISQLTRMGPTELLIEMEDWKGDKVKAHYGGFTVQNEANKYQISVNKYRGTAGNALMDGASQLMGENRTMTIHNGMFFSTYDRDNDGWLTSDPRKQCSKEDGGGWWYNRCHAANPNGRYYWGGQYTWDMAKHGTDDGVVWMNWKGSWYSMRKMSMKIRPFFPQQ
T4 sequence (P02679 27-433 limits assumed): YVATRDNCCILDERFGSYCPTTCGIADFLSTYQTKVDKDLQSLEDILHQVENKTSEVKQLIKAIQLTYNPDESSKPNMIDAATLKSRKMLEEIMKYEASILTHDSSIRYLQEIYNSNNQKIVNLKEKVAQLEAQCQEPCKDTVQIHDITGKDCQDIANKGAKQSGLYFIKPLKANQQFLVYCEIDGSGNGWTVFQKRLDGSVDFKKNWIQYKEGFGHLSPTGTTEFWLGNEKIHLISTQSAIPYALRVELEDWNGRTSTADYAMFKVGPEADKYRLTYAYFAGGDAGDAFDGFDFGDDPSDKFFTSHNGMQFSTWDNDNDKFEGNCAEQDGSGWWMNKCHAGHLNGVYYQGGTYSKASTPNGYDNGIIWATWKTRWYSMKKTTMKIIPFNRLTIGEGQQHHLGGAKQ
Experimental: as §2

[9] = biological target: T1, BSA; assay: Absorption titration with BSA, 1:1 binding model (dissociation constant); set-up: species or system bovine; conditions: absorption titration in aqueous solution
Source text: (§3) With the 1:1 binding model from fitting of absorption titration spectra, the dissociation constant for BSA was estimated to be 9.35×10^−6 M upon titration with BSA in aqueous solution. In sharp contrast, there is no response to BSA in aqueous solution for 1b, as its binding to BSA requires addition of surfactant SDS or graphene.

[10] = system: BSA injected into zebrafish embryos; assay: DNSA-SQ labeling of live developing zebrafish embryos; type: in vivo
Source text: as §1

[11] = biological target: T5, formaldehyde dehydrogenase (Pseudomonas putida, UniProt P46154); assay: Fluorescence response to formaldehyde dehydrogenase in PBS; type: binding
T5 construct: purchased SIGMA
T5 sequence (P46154 whole entry): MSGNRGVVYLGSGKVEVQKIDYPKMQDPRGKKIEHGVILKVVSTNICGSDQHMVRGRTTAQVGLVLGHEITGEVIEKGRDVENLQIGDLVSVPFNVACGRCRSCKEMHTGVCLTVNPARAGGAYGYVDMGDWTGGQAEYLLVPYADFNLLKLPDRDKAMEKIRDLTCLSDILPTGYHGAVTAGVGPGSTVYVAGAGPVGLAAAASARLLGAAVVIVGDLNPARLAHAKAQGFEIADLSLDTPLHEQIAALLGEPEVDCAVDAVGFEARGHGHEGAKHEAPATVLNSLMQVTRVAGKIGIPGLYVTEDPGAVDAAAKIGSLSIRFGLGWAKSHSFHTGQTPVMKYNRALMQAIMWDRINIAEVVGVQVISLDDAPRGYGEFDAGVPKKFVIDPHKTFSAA
Experimental: as §2

[12] = system: lipase; assay: Fluorescence response to lipase in PBS; type: binding
Experimental: as §2

[13] = biological target: T1, BSA; assay: Fluorescence response of DNSA-SQ to BSA in aqueous solution without aggregation agent; type: binding, bovine
Experimental: as §3, §2

[14] = dye in fish tank water, one hour, room temperature

**Q.** Which “size and shape of treated embryos/larvae compared to untreated” value [1] does the source give for `CCN1C(=CC2=C([N-]S(=O)(=O)c3cccc4c(N(C)C)cccc34)C(=Cc3sc4ccccc4[n+]3CC)C2=O)Sc2ccccc21` [DNSA-SQ] here?
**A.** Its value is “appeared normal in size and shape”.

**Q.** What about the “toxicity to treated embryos/larvae” value [1] of the same compound?
**A.** The value was “not toxic”.

**Q.** And the “mobility peak drift time tD of BSA-guest complex” value [2]?
**A.** Its value is 6.67 ms.

**Q.** What about the “experimental collision cross-section (CCS) of BSA-guest complex” value ([2]; standard curve) of the same compound?
**A.** The value was 4342 Å2.

**Q.** What about the “fluorescence change with chymotrypsin” value [3] of the same compound?
**A.** The value was “no obvious fluorescence change”.

**Q.** What about the “fluorescence change with lysozyme” value [4] of the same compound?
**A.** The value was “no obvious fluorescence change”.

**Q.** And the “fluorescence of BSA/DNSA-SQ complex on addition of site I ligand DNSA” value ([5]; displacement by DNSA)?
**A.** Its value is “did not result in fluorescence intensity change”.

**Q.** What about the “fluorescence of BSA/DNSA-SQ complex on addition of site II ligand DP” value ([5]; displacement by DP) of the same compound?
**A.** Its value is “fluorescence intensity increasing”.

**Q.** And the “BSA binding site selectivity” value ([5]; displacement by site-selective ligands and mass spectra data)?
**A.** The value was “enters selectively at site I”.

**Q.** And the “fluorescence quantum yield φfl” value [6]?
**A.** Its value is 1.0×10^−4.

**Q.** And the “fluorescence change with trypsin” value [7]?
**A.** Its value is “no obvious fluorescence change”.

**Q.** What about the “fluorescence change with fibrinogen” value [8] of the same compound?
**A.** Its value is “no obvious fluorescence change”.

**Q.** And the Kd [9]?
**A.** The Kd was 9.35 µM.

**Q.** What about the “labeling of control embryos without BSA supplement” value ([10]; 2.5, 36 and 73 hpf) of the same compound?
**A.** The value was “no labeling”.

**Q.** What about the “labeling of BSA-injected embryos at 2.5 hpf” value [10, 14] of the same compound?
**A.** The value was “labeling of all dividing cells”.

**Q.** What about the “labeling of BSA-injected embryos at 73 hpf” value [10, 14] of the same compound?
**A.** The value was “confined BSA labeling”.

**Q.** And the cell membrane penetration ([10]; living zebrafish embryos)?
**A.** The cell membrane penetration was “can easily penetrate through cell membranes”.

**Q.** And the “fluorescence change with formaldehyde dehydrogenase” value [11]?
**A.** Its value is “no obvious fluorescence change”.

**Q.** And the “fluorescence change with lipase” value [12]?
**A.** The value was “no obvious fluorescence change”.

**Q.** And the “fluorescence enhancement upon binding BSA” value ([13]; 674 nm, no aggregation agent)?
**A.** Its value is “over 140 fold”.

**Q.** What about the “detection limit of BSA” value ([13]; signal-to-noise ratio 3) of the same compound?
**A.** The value was 1 µg/mL.
